Measurements as given in ChEMBL document CHEMBL5331134, “Identification of Brain-Penetrant ATP-Competitive mTOR Inhibitors for CNS Syndromes” (J Med Chem, 2023).

What was measured:
[1] = Drug concentration in C57BL/6 mouse plasma at 3 mg/kg, po measured after 1 hr; type: ADME, organism-based
[2] = target: Phosphatidylinositol 4,5-bisphosphate 3-kinase catalytic subunit alpha isoform (Homo sapiens, UniProt P42336); assay: Inhibition of PI3Kalpha (unknown origin)
[3] = Ratio of drug concentration in brain to plasma in C57BL/6 mouse at 30 mg/kg, po measured at 1 hr; type: ADME, organism-based; settings: brain and plasma, read-out: BPR
[4] = Ratio of drug concentration in brain to plasma in C57BL/6 mouse at 10 mg/kg, po measured at 1 hr; type: ADME, organism-based; settings: brain and plasma, read-out: BPR
[5] = Genotoxicity in human TK6 cells assessed as micronuclei formation in absence of S9 fraction by micronucleus test; type: toxicity, cell-based
[6] = target: Phosphatidylinositol 4,5-bisphosphate 3-kinase catalytic subunit beta isoform (Homo sapiens, UniProt P42338); assay: Inhibition of PI3Kbeta (unknown origin)
[7] = Drug concentration in C57BL/6 mouse brain at 10 mg/kg, po measured after 24 hrs; type: ADME, organism-based; settings: read-out: Ct
[8] = target: Serine/threonine-protein kinase mTOR (Mus musculus) (UniProt Q9JLN9); assay: Inhibition of mTOR in Tsc1 knockout mouse neurons assessed as reduction in phosphorylated S6 level incubated for 4 hrs by Hoechst staining based immunofluorescence analysis; type: cell-based; settings: Neuron, dose 5.0 µM
[9] = Plasma protein binding in Sprague-Dawley rat at 5 uM measured for 4 hrs by equilibrium dialysis method based LC/MS/MS analysis; type: ADME, cell-free; settings: read-out: PPB (converted)
[10] = Drug concentration in C57BL/6 mouse brain at 10 mg/kg, po measured after 1 hr; type: ADME, organism-based; settings: read-out: Ct
[11] = Metabolic stability in cynomolgus monkey liver microsomes assessed as intrinsic clearance at 1 uM incubated for 30 mins in presence of NADPH by LC-MS/MS analysis; type: ADME, Macaca fascicularis, Microsome; settings: read-out: CLH
[12] = Genotoxicity in human TK6 cells assessed as micronuclei formation by micronucleus test; type: toxicity, cell-based
[13] = Drug concentration in C57BL/6 mouse plasma at 10 mg/kg, po measured after 1 hr; type: ADME, organism-based
[14] = Ratio of drug concentration in brain to plasma in Sprague-Dawley rat at 1 mg/kg, iv measured at 1 hr by HPLC-MS analysis; type: ADME, organism-based; settings: brain and plasma, read-out: BPR
[15] = target: T1, Phosphatidylinositol 4,5-bisphosphate 3-kinase catalytic subunit delta isoform (Homo sapiens, UniProt O00329); assay: Inhibition of PI3Kdelta (unknown origin)
T1 sequence (O00329 whole entry): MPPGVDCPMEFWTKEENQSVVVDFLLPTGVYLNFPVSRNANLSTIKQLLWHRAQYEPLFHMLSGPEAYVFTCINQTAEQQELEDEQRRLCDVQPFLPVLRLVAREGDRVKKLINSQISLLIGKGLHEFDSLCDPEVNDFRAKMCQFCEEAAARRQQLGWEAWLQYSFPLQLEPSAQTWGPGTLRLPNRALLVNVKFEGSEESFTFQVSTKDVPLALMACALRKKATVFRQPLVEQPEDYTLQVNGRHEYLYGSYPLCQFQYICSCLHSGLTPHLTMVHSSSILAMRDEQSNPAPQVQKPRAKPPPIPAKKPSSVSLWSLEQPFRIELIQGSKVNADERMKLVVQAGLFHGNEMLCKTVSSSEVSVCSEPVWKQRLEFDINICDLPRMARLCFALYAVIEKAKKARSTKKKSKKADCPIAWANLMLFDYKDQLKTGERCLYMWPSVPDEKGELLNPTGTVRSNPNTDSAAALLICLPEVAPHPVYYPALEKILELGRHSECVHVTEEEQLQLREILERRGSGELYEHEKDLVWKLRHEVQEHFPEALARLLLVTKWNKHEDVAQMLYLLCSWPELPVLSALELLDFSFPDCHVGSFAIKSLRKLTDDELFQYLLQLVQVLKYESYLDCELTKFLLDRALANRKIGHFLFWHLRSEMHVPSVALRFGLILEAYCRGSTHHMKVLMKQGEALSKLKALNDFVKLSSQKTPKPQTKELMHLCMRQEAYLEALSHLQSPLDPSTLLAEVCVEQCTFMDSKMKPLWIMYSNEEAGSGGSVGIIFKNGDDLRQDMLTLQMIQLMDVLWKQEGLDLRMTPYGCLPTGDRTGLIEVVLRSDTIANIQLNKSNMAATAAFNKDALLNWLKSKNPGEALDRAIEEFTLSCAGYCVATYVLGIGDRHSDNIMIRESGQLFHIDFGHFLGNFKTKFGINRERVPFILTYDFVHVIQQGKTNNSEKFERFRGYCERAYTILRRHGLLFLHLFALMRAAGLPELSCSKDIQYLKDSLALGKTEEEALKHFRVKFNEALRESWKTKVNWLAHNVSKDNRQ

[16] = Ratio of drug concentration in brain to plasma in C57BL/6 mouse at 30 mg/kg, po measured at 24 hrs; type: ADME, organism-based; settings: brain and plasma, read-out: BPR
[17] = Ratio of drug concentration in brain to plasma in C57BL/6 mouse at 10 mg/kg, po measured at 3 hrs; type: ADME, organism-based; settings: read-out: BPR
[18] = Drug concentration in C57BL/6 mouse brain at 10 mg/kg, po measured after 3 hrs; type: ADME, organism-based; settings: read-out: Ct
[19] = Apparent permeability across apical to basolateral side in MDCK-MDR1 cells; type: ADME, cell-based, Canis lupus familiaris; settings: dog
[20] = MRT(0 to t) in C57BL/6 mouse at 1 mg/kg, iv and 3 mg/kg, ip measured upto 24 hrs by HPLC-MS analysis; type: ADME, organism-based; settings: in vivo
[21] = Ratio of drug concentration in brain to plasma in C57BL/6 mouse at 1 mg/kg, po measured at 1 hr; type: ADME, organism-based; settings: read-out: BPR
[22] = Drug concentration in C57BL/6 mouse plasma at 10 mg/kg, po measured after 24 hrs; type: ADME, organism-based
[23] = Bioavailability in Sprague-Dawley rat at 3 mg/kg, po and 1 mg/kg, iv measured upto 24 hrs by HPLC-MS analysis; type: ADME, organism-based; settings: in vivo
[24] = Half life in C57BL/6 mouse at 1 mg/kg, iv and 3 mg/kg, ip measured upto 24 hrs by HPLC-MS analysis; type: ADME, organism-based; settings: in vivo
[25] = Volume of distribution at steady state in Sprague-Dawley rat at 3 mg/kg, po and 1 mg/kg, iv measured upto 24 hrs by HPLC-MS analysis; type: ADME, organism-based; settings: in vivo
[26] = Apparent permeability across basolateral to apical side in MDCK-MDR1 cells; type: ADME, cell-based, Canis lupus familiaris; settings: dog
[27] = AUC(0 to t) in Beagle dog at 1 mg/kg, po measured upto 24 hrs by LC/MS/MS analysis; type: ADME, organism-based, Canis lupus familiaris; parameters: time < 24 hrs, dose 1 mg/kg, route po; settings: in vivo
[28] = Tmax in cynomolgus monkey at 0.3 mg/kg, po measured upto 24 hrs by LC/MS/MS analysis; type: ADME, organism-based, Macaca fascicularis; settings: in vivo
[29] = Volume of distribution at steady state in Beagle dog at 1 mg/kg, po and 0.3 mg/kg, iv measured upto 24 hrs by LC/MS/MS analysis; type: ADME, organism-based, Canis lupus familiaris; settings: in vivo
[30] = In vivo inhibition of phosphorylation of AKT at serine 473 residues in C57BL/6 mouse brain at 10 to 30 mg/kg, po measured after 3 hrs by Western blotting analysis; type: organism-based; settings: dose 10-30 mg/kg

Phosphatidylinositol 4,5-bisphosphate 3-kinase catalytic subunit beta isoform, sequence (P42338 whole entry, canonical isoform): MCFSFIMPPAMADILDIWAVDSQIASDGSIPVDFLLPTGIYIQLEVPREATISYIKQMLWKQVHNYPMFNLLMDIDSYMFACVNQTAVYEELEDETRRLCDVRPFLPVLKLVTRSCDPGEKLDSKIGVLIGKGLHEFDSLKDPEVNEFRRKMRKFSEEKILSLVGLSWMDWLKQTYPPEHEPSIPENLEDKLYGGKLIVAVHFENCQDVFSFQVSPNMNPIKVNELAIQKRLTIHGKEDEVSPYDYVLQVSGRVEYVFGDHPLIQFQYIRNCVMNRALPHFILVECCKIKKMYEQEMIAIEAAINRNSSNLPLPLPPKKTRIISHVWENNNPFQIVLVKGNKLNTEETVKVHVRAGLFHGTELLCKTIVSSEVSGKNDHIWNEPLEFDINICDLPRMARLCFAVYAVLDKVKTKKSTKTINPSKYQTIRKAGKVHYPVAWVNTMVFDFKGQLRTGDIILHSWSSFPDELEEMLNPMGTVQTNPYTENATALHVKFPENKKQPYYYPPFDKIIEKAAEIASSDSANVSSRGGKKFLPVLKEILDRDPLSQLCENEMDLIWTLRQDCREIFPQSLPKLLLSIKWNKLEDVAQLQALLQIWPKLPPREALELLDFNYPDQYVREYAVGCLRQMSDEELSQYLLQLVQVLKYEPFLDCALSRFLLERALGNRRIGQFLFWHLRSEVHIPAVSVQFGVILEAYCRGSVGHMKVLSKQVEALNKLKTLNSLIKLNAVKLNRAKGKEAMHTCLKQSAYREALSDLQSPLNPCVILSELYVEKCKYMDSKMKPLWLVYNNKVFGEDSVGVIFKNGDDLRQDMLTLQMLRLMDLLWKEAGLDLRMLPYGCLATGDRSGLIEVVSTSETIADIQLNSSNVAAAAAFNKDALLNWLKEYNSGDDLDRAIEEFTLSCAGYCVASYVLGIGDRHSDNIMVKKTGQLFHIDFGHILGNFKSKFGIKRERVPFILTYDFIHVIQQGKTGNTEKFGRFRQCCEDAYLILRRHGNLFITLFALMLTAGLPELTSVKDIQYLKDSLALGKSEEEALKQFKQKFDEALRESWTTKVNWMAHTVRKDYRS
Phosphatidylinositol 4,5-bisphosphate 3-kinase catalytic subunit alpha isoform, sequence (P42336 whole entry, canonical isoform): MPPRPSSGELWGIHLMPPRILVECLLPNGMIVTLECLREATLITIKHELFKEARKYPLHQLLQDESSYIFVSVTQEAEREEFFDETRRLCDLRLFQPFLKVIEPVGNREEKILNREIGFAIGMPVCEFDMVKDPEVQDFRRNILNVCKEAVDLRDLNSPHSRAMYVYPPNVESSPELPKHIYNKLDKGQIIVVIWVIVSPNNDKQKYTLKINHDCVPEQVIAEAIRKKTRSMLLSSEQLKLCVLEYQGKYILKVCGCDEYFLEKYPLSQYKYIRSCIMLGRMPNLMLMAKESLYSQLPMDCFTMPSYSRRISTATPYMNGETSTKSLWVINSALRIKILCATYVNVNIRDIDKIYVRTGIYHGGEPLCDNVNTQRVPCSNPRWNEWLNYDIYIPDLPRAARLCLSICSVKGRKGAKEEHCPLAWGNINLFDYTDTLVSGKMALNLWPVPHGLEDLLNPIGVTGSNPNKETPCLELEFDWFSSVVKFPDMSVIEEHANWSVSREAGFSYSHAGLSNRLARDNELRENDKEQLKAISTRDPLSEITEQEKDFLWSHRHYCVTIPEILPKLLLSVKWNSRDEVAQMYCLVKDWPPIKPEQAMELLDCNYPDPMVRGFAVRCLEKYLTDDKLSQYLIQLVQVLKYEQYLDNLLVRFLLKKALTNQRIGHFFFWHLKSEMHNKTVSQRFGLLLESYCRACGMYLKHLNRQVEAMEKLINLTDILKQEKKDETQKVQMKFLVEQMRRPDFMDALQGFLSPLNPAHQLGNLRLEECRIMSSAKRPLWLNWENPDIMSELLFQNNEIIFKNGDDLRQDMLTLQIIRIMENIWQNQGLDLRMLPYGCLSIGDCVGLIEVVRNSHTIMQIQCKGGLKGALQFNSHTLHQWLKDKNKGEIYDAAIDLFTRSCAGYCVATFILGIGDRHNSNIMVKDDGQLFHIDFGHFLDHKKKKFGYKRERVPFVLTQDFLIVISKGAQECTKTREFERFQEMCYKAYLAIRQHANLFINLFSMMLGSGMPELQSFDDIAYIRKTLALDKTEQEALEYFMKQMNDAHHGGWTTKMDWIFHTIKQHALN

| Structure (SMILES) | IC50 [2] | Kp at 1 h [3] | Kp at 1 h [4] | Activity [5] | IC50 [6] | inhibition [8] | fraction unbound at 4 h, 5 µM [9] | concentration at 1 h [10] | microsomal CLint at 1 µM [11] | Activity [12] | concentration at 1 h [13] | Kp at 1 h [14] | IC50 [15] | Kp at 24 h [16] | Kp at 3 h [17] | concentration at 3 h [18] | Papp A→B [19] | MRT last at 24 h [20] | concentration at 24 h [22] | bioavailability [23] | other results |
| --- | --- | --- | --- | --- | --- | --- | --- | --- | --- | --- | --- | --- | --- | --- | --- | --- | --- | --- | --- | --- | --- |
| C[C@@H]1COCCN1c1cc(N2CCOC[C@@H]2C)nc2[nH]c(-c3cscn3)nc12 | > 10 µM | 1.29 | 0.97 | Non-Toxic | > 10 µM | Dose-Dependent Effect | 0.18 | 4.27 µM | 31 µL/min/mg | Non-Toxic | 4.42 µM | 0.35 | > 10 µM | 0.66 | 0.59 | 3.25 µM | 140 nm/s | 3.4 h | 0.211 µM | 107% | concentration at 1 h [1]: 2.75 µM; concentration at 24 h [7]: 0.13 µM; Kp at 1 h [21]: 0.51; half-life [24]: 2.7 h; Vdss [25]: 2.3 L/kg; Papp B→A [26]: 120 nm/s |
| C[C@@H]1COCCN1c1cc(N2CCOC[C@@H]2C)nc2[nH]c(-c3ccccn3)nc12 | > 10 µM | 1.03 | 0.6 | Non-Toxic | > 10 µM | Dose-Dependent Effect | 0.134 | 1.49 µM | 115 µL/min/mg | Non-Toxic | 2.48 µM | 0.48 | > 10 µM | 0.7 | 0.51 | 1.11 µM | 415 nm/s | 2.3 h | 0.004 µM | 122% | AUC(0-t) at 24 h [27]: 56 nM·h; Tmax [28]: 1.2 h; Vdss [29]: 4.3 L/kg; half-life [24]: 2 h; inhibition (INH) [30]: Active; Vdss [25]: 0.7 L/kg; Papp B→A [26]: 201 nm/s |
